Results: PubChem BioAssay AID330 (DTP/NCI, 2004)
“And” between values parts separate entries of the source, which are not always exact repeats. Identical values can stand only once. Inconclusive results and toxic doses are left out. How the source made its calls: active means survival T/C of 150% or more; inactive means T/C below 125% in these data.

Tested on: P388 leukemia ip, CD2F1 mice, survival T/C
Assay: NCI In Vivo Anticancer Drug Screen. Data for tumor model P388 Leukemia (intraperitoneal) in CD2F1 (CDF1) mice
Conditions: endpoint: median survival time, higher = longer survival
Summary of the method: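 Mice carrying the transplanted tumor received test compound or vehicle. Survival was recorded in each group, and the value is the treated-group measurement divided by that of the vehicle-treated control group.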

[1] = dose: 50.0 mg/kg/injection, schedule: Q01DX005 (ip), vehicle: saline with Tween-80
[2] = dose: 100.0 mg/kg/injection, schedule: Q01DX005 (ip), vehicle: saline with Tween-80
[3] = dose: 200.0 mg/kg/injection, schedule: Q01DX005 (ip), vehicle: saline with Tween-80
[4] = dose: 50.0 mg/kg/injection, schedule: Q01DX009 (ip), vehicle: Klucel (hydroxypropylcellulose) (HPC)
[5] = dose: 100.0 mg/kg/injection, schedule: Q01DX009 (ip), vehicle: Klucel (hydroxypropylcellulose) (HPC)
[6] = dose: 200.0 mg/kg/injection, schedule: Q01DX009 (ip), vehicle: Klucel (hydroxypropylcellulose) (HPC)
[7] = dose: 50.0 mg/kg/injection, schedule: Q04DX003 (ip), vehicle: Klucel (hydroxypropylcellulose) (HPC)
[8] = dose: 100.0 mg/kg/injection, schedule: Q04DX003 (ip), vehicle: Klucel (hydroxypropylcellulose) (HPC)
[9] = dose: 200.0 mg/kg/injection, schedule: Q04DX003 (ip), vehicle: Klucel (hydroxypropylcellulose) (HPC)
[10] = dose: 50.0 mg/kg/injection, schedule: Q01DX005 (ip), vehicle: Klucel (hydroxypropylcellulose) (HPC)
[11] = dose: 100.0 mg/kg/injection, schedule: Q01DX005 (ip), vehicle: Klucel (hydroxypropylcellulose) (HPC)
[12] = dose: 200.0 mg/kg/injection, schedule: Q01DX005 (ip), vehicle: Klucel (hydroxypropylcellulose) (HPC)
[13] = dose: 60.0 mg/kg/injection, schedule: Q01DX005 (ip), vehicle: saline with Tween-80
[14] = dose: 120.0 mg/kg/injection, schedule: Q01DX005 (ip), vehicle: saline with Tween-80
[15] = dose: 30.0 mg/kg/injection, schedule: Q01DX005 (ip), vehicle: saline with Tween-80
[16] = dose: 50.0 mg/kg/injection, schedule: Q01DX009 (ip), vehicle: saline
[17] = dose: 100.0 mg/kg/injection, schedule: Q01DX009 (ip), vehicle: saline
[18] = dose: 200.0 mg/kg/injection, schedule: Q01DX009 (ip), vehicle: saline

Measured: T/C

C=Cn1c([N+](=O)[O-])cnc1/C=C/c1ccc(C#N)cc1
inactive: dose: 100.0 mg/kg/injection, schedule: Q01DX001 (ip), vehicle: Klucel (hydroxypropylcellulose) (HPC) 94 % of control | dose: 200.0 mg/kg/injection, schedule: Q01DX001 (ip), vehicle: Klucel (hydroxypropylcellulose) (HPC) 96 % of control | dose: 400.0 mg/kg/injection, schedule: Q01DX001 (ip), vehicle: Klucel (hydroxypropylcellulose) (HPC) 93 % of control

CC1(C)OCC(C2OC3OC(C)(C)OC3C2OP(=O)(N2CC2)N2CC2)O1 (stereo not drawn)
inactive: dose: 50.0 mg/kg/injection, schedule: Q01DX009 (ip), vehicle: saline with Tween-80 112 % of control | dose: 100.0 mg/kg/injection, schedule: Q01DX009 (ip), vehicle: saline with Tween-80 105 % of control

CCCN1CN2CCOC2C(C)(C)C1 (stereo not drawn)
inactive: dose: 40.0 mg/kg/injection, schedule: Q01DX009 (ip), vehicle: saline with Tween-80 112 % of control | dose: 80.0 mg/kg/injection, schedule: Q01DX009 (ip), vehicle: saline with Tween-80 114 % of control

C=CCNC(=S)N/N=C(\C)c1cccc(C)n1
inactive: [1] 100 % of control | [2] 100 % of control | [3] 112 % of control

O=C(Nc1ccc(OCC2=NCCN2)cc1)c1ccc(C(=O)Nc2ccc(OCC3=NCCN3)cc2)cc1
inactive: [1] 108 % of control | [2] 103 % of control | [3] 105 % of control

COC(=O)CCCCC(=O)OC
inactive: dose: 100.0 mg/kg/injection, schedule: Q04DX003 (ip), vehicle: saline 109 % of control | dose: 200.0 mg/kg/injection, schedule: Q04DX003 (ip), vehicle: saline 109 % of control | dose: 400.0 mg/kg/injection, schedule: Q04DX003 (ip), vehicle: saline 109 % of control

COc1cc(/C=C/C(=O)c2c(N)n(C)c(=O)n(C)c2=O)cc(OC)c1OC
inactive: [4] 113 % of control | [5] 115 % of control | [6] 113 % of control

ClCCN(CCN(CCCl)c1cccc2ccccc12)c1cccc2ccccc12
inactive: [7] 104 % of control | [8] 103 % of control | [9] 107 % of control

Oc1cc2c(cc1-c1cc3c(cc1O)OCO3)OCO2
inactive: dose: 25.0 mg/kg/injection, schedule: Q01DX005 (ip), vehicle: Klucel (hydroxypropylcellulose) (HPC) 100 % of control | [10] 100 % of control | [11] 105 % of control | [12] 100 % of control

CCOC(=O)N1C=CC2(C=C1)CCCCC2
inactive: dose: 25.0 mg/kg/injection, schedule: Q04DX003 (ip), vehicle: Klucel (hydroxypropylcellulose) (HPC) 101 % of control | [7] 106 % of control

CSCc1cc(CO)no1
inactive: [13] 100 % of control | [14] 99 % of control | dose: 240.0 mg/kg/injection, schedule: Q01DX005 (ip), vehicle: saline with Tween-80 106 % of control

CC(C)(C)C(=O)Oc1c2ccccc2cc2ccccc12
inactive: [15] 88 % of control | [13] 88 % of control and 89 % of control | [14] 86 % of control

CC1(C)NC(C(=O)O)Cc2c1[nH]c1ccccc21 (stereo not drawn)
inactive: dose: 25.0 mg/kg/injection, schedule: Q01DX009 (ip), vehicle: saline 102 % of control | [16] 91 % of control | [17] 94 % of control

CSC(=S)NNC1=NCCCCC1
inactive: [4] 106 % of control | [5] 97 % of control | [6] 87 % of control

CN(C)c1cc[n+](-c2c([O-])c3ccccc3n(-c3ccccc3)c2=O)cc1
inactive: [10] 107 % of control | [11] 104 % of control | [12] 97 % of control

Cc1ccc(S(=O)(=O)F)c(Cl)c1
inactive: [8] 95 % of control | [9] 119 % of control | dose: 400.0 mg/kg/injection, schedule: Q04DX003 (ip), vehicle: Klucel (hydroxypropylcellulose) (HPC) 103 % of control

O=C(CBr)c1cc2ccccc2[nH]1
inactive: dose: 100.0 mg/kg/injection, schedule: Q01DX001 (ip), vehicle: saline 110 % of control | dose: 200.0 mg/kg/injection, schedule: Q01DX001 (ip), vehicle: saline 106 % of control | dose: 400.0 mg/kg/injection, schedule: Q01DX001 (ip), vehicle: saline 106 % of control

O=C(Oc1ccc[nH]c1=O)c1ccccc1
inactive: dose: 37.5 mg/kg/injection, schedule: Q01DX009 (ip), vehicle: saline 108 % of control and 98 % of control | dose: 75.0 mg/kg/injection, schedule: Q01DX009 (ip), vehicle: saline 101 % of control and 105 % of control | dose: 150.0 mg/kg/injection, schedule: Q01DX009 (ip), vehicle: saline 107 % of control | dose: 300.0 mg/kg/injection, schedule: Q01DX009 (ip), vehicle: saline 101 % of control and 110 % of control | dose: 600.0 mg/kg/injection, schedule: Q01DX009 (ip), vehicle: saline 101 % of control and 107 % of control

CC(=O)c1ccc2c(c1)NC(=O)CC(C)N2 (stereo not drawn)
inactive: [10] 99 % of control | [11] 99 % of control | [12] 103 % of control

C/C=C1\CN2C3CC1C1(CN4c5c(OC)cc(OC)c(OC)c5C56CC7C(COC45O1)C1CC6N7C/C1=C/COC)C2CC31C(=O)Nc2c(OC)cc(OC)c(OC)c21 (stereo not drawn)
inactive: dose: 1.5 mg/kg/injection, schedule: Q01DX005 (ip), vehicle: Klucel (hydroxypropylcellulose) (HPC) 97 % of control | dose: 3.0 mg/kg/injection, schedule: Q01DX005 (ip), vehicle: Klucel (hydroxypropylcellulose) (HPC) 97 % of control | dose: 6.0 mg/kg/injection, schedule: Q01DX005 (ip), vehicle: Klucel (hydroxypropylcellulose) (HPC) 108 % of control | dose: 12.0 mg/kg/injection, schedule: Q01DX005 (ip), vehicle: Klucel (hydroxypropylcellulose) (HPC) 96 % of control

CNC(=O)N(Cl)c1ccc(Cl)cc1
inactive: [16] 98 % of control | [17] 96 % of control | [18] 97 % of control

CCOC(=O)NOC1CCCCO1 (stereo not drawn)
inactive: [16] 91 % of control | [17] 105 % of control | [18] 104 % of control

CCOc1cc2c(cc1C(CC)c1ccccc1)OCO2 (stereo not drawn)
inactive: [10] 99 % of control | [11] 96 % of control | [12] 95 % of control

C=CCNC(=S)N/N=C(/C=C/c1ccc(OC)cc1)CCN(C)C
inactive: dose: 100.0 mg/kg/injection, schedule: Q01DX001 (ip), vehicle: saline with Tween-80 87 % of control | dose: 200.0 mg/kg/injection, schedule: Q01DX001 (ip), vehicle: saline with Tween-80 89 % of control | dose: 400.0 mg/kg/injection, schedule: Q01DX001 (ip), vehicle: saline with Tween-80 90 % of control

NC(=S)N/N=C/c1cc(Cl)sc1Cl
inactive: [1] 102 % of control | [2] 98 % of control | [3] 96 % of control

N=C(N)SC12CC3CC(CC(C3)C1)C2
inactive: dose: 7.5 mg/kg/injection, schedule: Q01DX005 (ip), vehicle: saline with Tween-80 93 % of control | dose: 15.0 mg/kg/injection, schedule: Q01DX005 (ip), vehicle: saline with Tween-80 98 % of control | [15] 99 % of control | [13] 98 % of control

COc1ccc2c(c1)N(CCC1CCCCN1C)c1ccccc1S2 (stereo not drawn)
inactive: dose: 12.5 mg/kg/injection, schedule: Q04DX003 (ip), vehicle: saline 116 % of control | dose: 25.0 mg/kg/injection, schedule: Q04DX003 (ip), vehicle: saline 115 % of control | dose: 50.0 mg/kg/injection, schedule: Q04DX003 (ip), vehicle: saline 119 % of control
